Source: patent publication US5178662A, “Benzaldehyde acetal compounds, preparation process thereof, and herbicidal compositions containing the same as active ingredients” (Mitsui Toatsu Chemicals, Inc., priority 1990, dated 1993)

How the values were obtained:
[1] = test system: Barnyardgrass (Echinochloa crusgalli); experiment: Upland foliar application test, barnyardgrass; assay type: in vivo; conditions: Echinochloa crus-galli, 960 h; foliar application at stage of 2-3 leaves, 50 g ai/a, emulsion, 40th day after spray; read-out: Herbicidal effects Barnyardgrass (Echinochloa crusgalli)
Procedure: (§1) Resin-made 1/1000-are pots were filled with the soil of an upland field. After they were fertilized, cotton and soybean were seeded and 3 cm soil covering was applied. Five days later, amaranth, common lambsquarters, barnyardgrass, green foxtail, large crabgrass and johnsongrass were seeded and 1 cm soil covering was applied. They were allowed to grow in a green house. When each plant grew to the stage of 2-3 leaves, an emulsion formulated from a predetermined amount of each test compound in a similar manner to the procedures described in Formulation Example 11 was diluted with water and then sprayed at a predetermined application rate by means of a pressure-operated sprayer. The application rate was controlled at 5 l per are. Influence to the crops and weeds were observed on the 40th day after the spray of the herbicides. The results are shown in Table 4 in which the degree of damages of each test plant and the degree of injury to each crop are shown in a similar manner to Test 2.

common lambsquarters [2] = experiment: Upland soil application test, common lambsquarters; assay type: in vivo; conditions: Chenopodium album, 1200 h; soil application one day after seeding, 50 g ai/a, wettable powder, fresh weight on 50th day after spray; read-out: Herbicidal effects Common lambquarters
Procedure: (§2) Resin-made 1/1000-are pots were filled with the soil of an upland field. After they were fertilized, cotton and soybean were seeded and 3 cm soil covering was applied. In addition, amaranth, common lambs-quarters, barnyardgrass, green foxtail, large crabgrass and johnsongrass were seeded and 1 cm soil covering was applied. One day later, a wettable powder prepared from a predetermined amount of each test compound in a similar manner to the procedures described in Formulation Example 1 was diluted with water and then sprayed evenly at an application rate equal to 10 l per are onto the surface of the soil by means of a pressure-operated sprayer. The weeds and crops were allowed to grow in a green house and influence to them were observed on the 50th day after the spray. The degree of damages of each test plant and the degree of injury to each crop were determined by measuring fresh weight in each group and indicated by % calculated according to the following formula. [formula]

Soybean (Glycine max) [3] = experiment: Upland soil application test, crop injury soybean; assay type: in vivo; conditions: soil application one day after seeding, 50 g ai/a, wettable powder, fresh weight on 50th day after spray
Procedure: as §2

[4] = test system: Foxtail (Setaria viridis); experiment: Upland soil application test, green foxtail; assay type: in vivo; conditions: 1200 h, soil application one day after seeding, 50 g ai/a, wettable powder, fresh weight on 50th day after spray, read-out: Herbicidal effects Foxtail (Setaria viridis)
Procedure: as §2

Johnsongrass [5] = experiment: Upland soil application test, johnsongrass; assay type: in vivo; conditions: Sorghum halepense, 1200 h; soil application one day after seeding, 50 g ai/a, wettable powder, fresh weight on 50th day after spray; read-out: Herbicidal effects Johnsongrass
Procedure: as §2

[6] = test system: Amaranth (Amaranthus viridis); experiment: Upland foliar application test, amaranth; assay type: in vivo; conditions: 960 h, foliar application at stage of 2-3 leaves, 50 g ai/a, emulsion, 40th day after spray, read-out: Herbicidal effects Amaranth (Amaranthus viridis)
Procedure: as §2, §1

[7] = test system: ALS (acetolactate syntase) from barnyardgrass seedlings; experiment: ALS (acetolactate syntase) inhibition test, barnyardgrass enzyme; assay type: biochemical; conditions: 10,000 ppm (0.5 μg/0.5 ml) of compound; 1 hour at 30° C.; absorbance at 525 nm
Procedure: (§3) To determine the selectivity in enzyme level between crops and weeds, an ALS inhibition test was conducted using pea as a typical broadleaf crop and barnyardgrass as a representative gramineous weeds.
(§4) After seeds of pea and barnyardgrass were allowed to germinate at 25° C. for 8-14 days in a dark place, partially-purified suspensions (Suspensions A) of acetolactate syntase were separately obtained from the seedlings in accordance with the procedures described in the literature, Plant Physiology, 75, 827-831. In a test tube, 0.5 mg of one of test compounds was weighed, followed by the addition of 0.15 ml of a 20 mM K2 HPO4 solution and 0.25 ml of a reaction substrate medium which consisted of 40 mM of K2 HPO4, 40 mM of sodium pyruvate, 1 mM of TPP, 1 mM of MgCl2 and 20 μM of FAD so that 0.4 ml of a reaction solution (Solution B) was prepared. Added to 0.4 ml of Solution B was 0.1 ml of Suspension A. After the resultant mixture was shaken for 1 hour in a thermostat water bath controlled at 30° C., 50 μl of 6N sulfuric acid were added to terminate the reaction.
(§5) Next, the test tube with the reaction-terminated liquid mixture contained therein was transferred into a thermostat water bath controlled at 60° C. and was heated for 15 minutes. Thereafter, 0.5 ml of a 0.5% creatine solution and 0.5 ml of a 5% alkaline α-naphthol solution were added, and the resultant mixture was maintained at 60° C. for 15 minutes. As a result, the test solution developed a pink-to-red color. After the above operation, the absorbance of the test solution at 525 nm was measured by a spectrophotometer (Absorbance 1 of Test Compound).
(§6) Further, the absorbance (Absorbance 2 of Blank) of a solution obtained by subjecting a portion of Solution B to the above procedures without addition of any test compound and the absorbance (Absorbance 3 of sulfuric acid) of another solution obtained by subjecting another portion of Solution B to the above procedures which using 50 μl of 6N sulfuric acid as a test compound were also measured.

[8] = test system: Cotton (Gossypium indicum); experiment: Upland foliar application test, crop injury cotton; assay type: in vivo; conditions: foliar application at stage of 2-3 leaves, 50 g ai/a, emulsion, 40th day after spray
Procedure: as §2, §1

[9] = test system: Amaranth (Amaranthus viridis); experiment: Upland soil application test, amaranth; assay type: in vivo; conditions: 1200 h, soil application one day after seeding, 50 g ai/a, wettable powder, fresh weight on 50th day after spray, read-out: Herbicidal effects Amaranth (Amaranthus viridis)
Procedure: as §2

[10] = test system: johnsongrass emerging from rhizome; experiment: Application test on johnsongrass emerging from rhizome; assay type: in vivo; conditions: foliar application at stage of 4-5 leaves, application rate of active ingredient 20 (unit not given), emulsion, 50th day after spray
Procedure: as §2
Resin-made 1/1000-are pots were filled with the soil of an upland field. After they were fertilized, rhizome of johnsongrass were transplanted to the pots and 3 cm soil covering was applied. They were allowed to grow in a green house. When each johnsongrass grew to the stage of 4-5 leaves, an emulsion formulated from a predetermined amount of each test compound in a similar manner to the procedures described in Formulation Example 11 was diluted with water and then sprayed at a predetermined application rate by means of a pressure-operated sprayer. The application rate was controlled at 5 l per are. The effect of each compound against the johnsongrass emerging from its rhizome was observed on the 50th day after the spray of the herbicides. The results are shown in Table 5 in which the herbicidal effect against johnsongrass is shown in a similar manner to Test 2.

[11] = test system: Cotton (Gossypium indicum); experiment: Upland soil application test, crop injury cotton; assay type: in vivo; conditions: soil application one day after seeding, 50 g ai/a, wettable powder, fresh weight on 50th day after spray
Procedure: as §2

Soybean (Glycine max) [12] = experiment: Upland foliar application test, crop injury soybean; assay type: in vivo; conditions: foliar application at stage of 2-3 leaves, 50 g ai/a, emulsion, 40th day after spray
Procedure: as §1

[13] = test system: ALS (acetolactate syntase) from pea seedlings; experiment: ALS (acetolactate syntase) inhibition test, pea enzyme; assay type: biochemical; conditions: 10,000 ppm (0.5 μg/0.5 ml) of compound; 1 hour at 30° C.; absorbance at 525 nm
Procedure: as §3, §4, §5, §6

Johnsongrass [14] = experiment: Upland foliar application test, johnsongrass; assay type: in vivo; conditions: Sorghum halepense, 960 h; foliar application at stage of 2-3 leaves, 50 g ai/a, emulsion, 40th day after spray; read-out: Herbicidal effects Johnsongrass
Procedure: as §1

[15] = test system: Foxtail (Setaria viridis); experiment: Upland foliar application test, green foxtail; assay type: in vivo; conditions: 960 h, foliar application at stage of 2-3 leaves, 50 g ai/a, emulsion, 40th day after spray, read-out: Herbicidal effects Foxtail (Setaria viridis)
Procedure: as §2, §1

[16] = test system: Barnyardgrass (Echinochloa crusgalli); experiment: Upland soil application test, barnyardgrass; assay type: in vivo; conditions: Echinochloa crus-galli, 1200 h; soil application one day after seeding, 50 g ai/a, wettable powder, fresh weight on 50th day after spray; read-out: Herbicidal effects Barnyardgrass (Echinochloa crusgalli)
Procedure: as §2

common lambsquarters [17] = experiment: Upland foliar application test, common lambsquarters; assay type: in vivo; conditions: Chenopodium album, 960 h; foliar application at stage of 2-3 leaves, 50 g ai/a, emulsion, 40th day after spray; read-out: Herbicidal effects Common lambquarters
Procedure: as §1

[18] = test system: Crabgrass (Digitaria adscendens); experiment: Upland soil application test, large crabgrass; assay type: in vivo; conditions: 1200 h, soil application one day after seeding, 50 g ai/a, wettable powder, fresh weight on 50th day after spray, read-out: Herbicidal effects Crabgrass (Digitaria adscendens)
Procedure: as §2

[19] = test system: Crabgrass (Digitaria adscendens); experiment: Upland foliar application test, large crabgrass; assay type: in vivo; conditions: 960 h, foliar application at stage of 2-3 leaves, 50 g ai/a, emulsion, 40th day after spray, read-out: Herbicidal effects Crabgrass (Digitaria adscendens)
Procedure: as §2, §1

Compound | pest or weed control at 5000 g/ha [1] [%] | pest or weed control at 5000 g/ha (common lambsquarters [2]) [%] | Crop injury Soybean (Glycine max) (Soybean (Glycine max) [3]) [%] | pest or weed control at 5000 g/ha [4] [%] | pest or weed control at 5000 g/ha (Johnsongrass [5]) [%] | pest or weed control at 5000 g/ha [6] [%] | Enzymoreaction inhibition rate (%) Barnyardgrass [7] [%] | Crop injury Cotton (Gossypium indicum) [8] [%] | pest or weed control at 5000 g/ha [9] [%] | Herbicidal effect against johnsongrass emerging from rhizome [10] [%] | Crop injury Cotton (Gossypium indicum) [11] [%] | Crop injury Soybean (Glycine max) (Soybean (Glycine max) [12]) [%] | Enzymoreaction inhibition rate (%) Pea [13] [%] | pest or weed control at 5000 g/ha (Johnsongrass [14]) [%] | pest or weed control at 5000 g/ha [15] [%] | pest or weed control at 5000 g/ha [16] [%] | pest or weed control at 5000 g/ha (common lambsquarters [17]) [%] | pest or weed control at 5000 g/ha [18] [%] | pest or weed control at 5000 g/ha [19] [%]
CCCCCCCOC(OCCCCCCC)c1ccccc1Oc1nc(OC)cc(OC)n1 [Compound No. 6] | 95 | 90 | 0 | 100 | 100 | 95 | 100 | 0 | 95 | 85 | 0 | 0 | 0 | 100 | 95 | 95 | 90 | 85 | 90
CCCCCCCCOC(OCCCCCCCC)c1ccccc1Oc1nc(OC)cc(OC)n1 [Compound No. 7, 2-(4,6-dimethoxypyrimidin-2-yloxy)benzaldehyde di-n-octylacetal] | 95 | 85 | 0 | 90 | 100 | 90 | 100 | 0 | 80 | 80 | 0 | 0 | 0 | 100 | 90 | 85 | 85 | 80 | 90
